According to US12692253B2, “Antimicrobial compounds and methods” (Curza Global, LLC, priority 2019, dated 2026):
Like-named read-outs stand apart in the source and are kept apart here.

Legend:
[1] = target: Rabbit Reticulocyte Lysate (eukaryotic protein synthesis); assay: Rabbit reticulocyte lysate luciferase assay (inhibition of eukaryotic protein synthesis); format: biochemical; conditions: read-out: Rabbit reticulocyte IC50 (μM/% inhib.)
Procedure, shortened: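 Percent inhibition calculated against water-only controls from luminescence; background set by lysate lacking RNA. Compounds, 8-point 2-fold titration, incubated 90 minutes at 30° C with nuclease-treated rabbit reticulocyte lysate programmed with luciferase control RNA plus complete amino acids.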

[2] = tested on: P. aeruginosa (Pa); assay: Broth microdilution minimum inhibitory concentration (MIC), CLSI; format: cell-based; conditions: for MIC: Pseudomonas aeruginosa, read-out: Pa MIC + bicarb
Procedure, shortened: (§1)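 CLSI M07-A9 broth microdilution, slightly modified: 8 two-fold compound dilutions in triplicate, CAMHB ± bicarbonate (6.25 or 25 mM final) or 0-50% heat-inactivated human serum; 5×10^4 CFU/well.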

[3] = tested on: E. coli (Ec); assay: as above; format: cell-based; conditions: for MIC: Escherichia coli, read-out: E. coli + bicarb MIC
Procedure, shortened: as §1

[4] = tested on: A. baumannn (Ab); assay: as above; format: cell-based; conditions: for MIC: read-out: Ab + bicarb MIC
Procedure, shortened: as §1

[5] = tested on: E. faecalis (Ef); assay: as above; format: cell-based; conditions: for MIC: Enterococcus faecalis, read-out: Ef + bicarb MIC
Procedure, shortened: as §1

[6] = tested on: S. aureus (Sa); assay: as above; format: cell-based; conditions: for MIC: Staphylococcus aureus, read-out: Sa + bicarb MIC
Procedure, shortened: as §1

[7] = tested on: E. coli S30 extract (bacterial protein synthesis); assay: E. coli S30 extract coupled transcription-translation luciferase assay (inhibition of bacterial protein synthesis); format: biochemical; conditions: read-out: S30 IC50 (μM/% inhib.)
Procedure, shortened: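 Luciferase luminescence quantified inhibition of protein synthesis relative to water controls, with no-DNA reactions giving background. Compounds in 2-fold serial dilution (8 levels) were incubated 1 hour at 37 °C with E. coli S30 extract, amino acids and pBESTluc plasmid, then chilled to stop.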

[8] = growth medium with sodium bicarbonate
[9] = A. baumannn, growth medium with sodium bicarbonate
[10] = class by IC50 or % inhibition @ 1 μM
[11] = growth medium supplemented with sodium bicarbonate

CC(Cc1ccc(-n2ccc(NC(=O)N3CCN(C(=O)[C@@H]4CCCN4)CC3)nc2=O)cc1)N1C[C@@H]2[C@@H](CN)[C@@H]2C1 (stereo partly drawn) [Compound 228]
IC50 ([1]; % inhibition @ 1 μM): ≥ 1 µM
MIC [2, 8]: > 32 µg/mL
MIC [3, 8]: < 8 µg/mL
MIC [4, 9]: > 32 µg/mL
MIC [5, 8]: 8 to 32 µg/mL
MIC [6, 8]: < 8 µg/mL
IC50 ([7]; % inhibition @ 1 μM): ≥ 1 µM

Cc1cc(-n2ccc(NC(=O)N3CCN(C(=O)C(C)(C)N)CC3)nc2=O)ccc1CCN1C[C@@H]2[C@@H](CN)[C@@H]2C1 [Compound 126]
IC50 [1, 10]: ≥ 1 µM
MIC [2, 11]: 8 to 32 µg/mL
MIC [3, 11]: < 8 µg/mL
MIC ([4]; Acinetobacter baumannii): 8 to 32 µg/mL
MIC [5, 11]: 8 to 32 µg/mL
MIC [6, 11]: < 8 µg/mL
IC50 [7, 10]: < 0.5 µM

CC(C)[C@H](N)C(=O)N1CCN(C(=O)Nc2ccn(-c3ccc(CC(C)N4C[C@@H]5[C@@H](CN)[C@@H]5C4)cc3)c(=O)n2)CC1 (stereo partly drawn) [Compound 223]
IC50 ([1]; % inhibition @ 1 μM): ≥ 1 µM
MIC [2, 8]: > 32 µg/mL
MIC [3, 8]: < 8 µg/mL
MIC [4, 9]: > 32 µg/mL
MIC [5, 8]: < 8 µg/mL
MIC [6, 8]: < 8 µg/mL
IC50 ([7]; % inhibition @ 1 μM): < 0.5 µM

CC(N)[C@H]1[C@@H]2CN(CCc3ccc(-n4ccc(NC(=O)N5CCN(C(=O)C(C)(C)N)CC5)nc4=O)cc3)C[C@@H]21 (stereo partly drawn) [Compound 134]
IC50 [1, 10]: ≥ 1 µM
MIC [2, 11]: 8 to 32 µg/mL
MIC [3, 11]: < 8 µg/mL
MIC ([4]; Acinetobacter baumannii): 8 to 32 µg/mL
MIC [5, 11]: < 8 µg/mL
MIC [6, 11]: < 8 µg/mL
IC50 [7, 10]: < 0.5 µM

CC(C)[C@@H](N)CC(=O)N1CCN(C(=O)Nc2ccn(-c3ccc(CC(C)N4C[C@@H]5[C@@H](CN)[C@@H]5C4)cc3)c(=O)n2)CC1 (stereo partly drawn) [Compound 235]
IC50 ([1]; % inhibition @ 1 μM): ≥ 1 µM
MIC [2, 8]: > 32 µg/mL
MIC [3, 8]: < 8 µg/mL
MIC [4, 9]: > 32 µg/mL
MIC [5, 8]: > 32 µg/mL
MIC [6, 8]: < 8 µg/mL
IC50 ([7]; % inhibition @ 1 μM): ≥ 1 µM

CC(Cc1ccc(-n2ccc(NC(=O)N3CCN(C(=O)C(C)(C)N)CC3)nc2=O)cc1)NC12CC(CN)(C1)C2 (stereo not drawn) [Compound 203]
IC50 ([1]; % inhibition @ 1 μM): ≥ 1 µM
MIC [2, 8]: > 32 µg/mL
MIC [3, 8]: 8 to 32 µg/mL
MIC [4, 9]: > 32 µg/mL
MIC [5, 8]: > 32 µg/mL
MIC [6, 8]: 8 to 32 µg/mL
IC50 ([7]; % inhibition @ 1 μM): ≥ 1 µM

CC(Cc1ccc(-n2ccc(NC(=O)N3CCN(C(=O)C(C)(C)N)CC3)nc2=O)cc1)N1CC2CCC(N)CC2C1 (stereo not drawn) [Compound 215]
IC50 ([1]; % inhibition @ 1 μM): ≥ 1 µM
MIC [2, 8]: > 32 µg/mL
MIC [3, 8]: < 8 µg/mL
MIC [4, 9]: > 32 µg/mL
Ef + bicarb MIC [5, 8]: ++ (An MIC value (μg/mL) that is 8 μg/mL or greater and less than 32 μg/mL)
MIC [6, 8]: < 8 µg/mL
IC50 ([7]; % inhibition @ 1 μM): < 0.5 µM

CC(Cc1ccc(-n2ccc(NC(=O)N3CCN(C(=O)C(C)(C)N)CC3)nc2=O)cc1F)N1C[C@@H]2[C@@H](CN)[C@@H]2C1 (stereo partly drawn) [Compound 139]
IC50 [1, 10]: ≥ 1 µM
MIC [2, 11]: 8 to 32 µg/mL
MIC [3, 11]: < 8 µg/mL
MIC ([4]; Acinetobacter baumannii): 8 to 32 µg/mL
MIC [5, 11]: < 8 µg/mL
MIC [6, 11]: < 8 µg/mL
IC50 [7, 10]: < 0.5 µM

CC(C)(N)C(=O)N1CCN(C(=O)Nc2ccn(-c3ccc(CCN4C[C@@H]5[C@@H](CN)[C@@H]5C4)c(C(F)(F)F)c3)c(=O)n2)CC1 [Compound 102]
IC50 [1, 10]: ≥ 1 µM
MIC [2, 11]: 8 to 32 µg/mL
MIC [3, 11]: < 8 µg/mL
MIC ([4]; Acinetobacter baumannii): > 32 µg/mL
MIC [5, 11]: 8 to 32 µg/mL
MIC [6, 11]: < 8 µg/mL
IC50 [7, 10]: < 0.5 µM

CC(C)CC(Cc1ccc(-n2ccc(NC(=O)N3CCN(C(=O)C(C)(C)N)CC3)nc2=O)cc1)N1C[C@@H]2[C@@H](CN)[C@@H]2C1 (stereo partly drawn) [Compound 156]
IC50 [1, 10]: ≥ 1 µM
MIC [2, 11]: < 8 µg/mL
MIC [3, 11]: < 8 µg/mL
MIC ([4]; Acinetobacter baumannii): < 8 µg/mL
MIC [5, 11]: < 8 µg/mL
MIC [6, 11]: < 8 µg/mL
IC50 [7, 10]: < 0.5 µM

CC(C)(N)C(=O)N1CCN(C(=O)Nc2ccn(-c3cccc(CCN4CCC5(CC4)CC(N)C5)c3)c(=O)n2)CC1 [Compound 110]
IC50 [1, 10]: ≥ 1 µM
MIC [2, 11]: > 32 µg/mL
MIC [3, 11]: < 8 µg/mL
MIC ([4]; Acinetobacter baumannii): > 32 µg/mL
MIC [5, 11]: 8 to 32 µg/mL
MIC [6, 11]: < 8 µg/mL
IC50 [7, 10]: 0.5 to 1 µM

CC(Cc1ccc(-n2ccc(NC(=O)N3CCN(C(=O)C(C)(C)N)CC3)nc2=O)cc1)N1CCC2(CC(N)C2)C1 (stereo not drawn) [Compound 238]
IC50 ([1]; % inhibition @ 1 μM): ≥ 1 µM
Pa MIC + bicarb [2, 8]: + (An MIC (μg/mL) value that is 32 μg/mL or greater)
E. coli + bicarb MIC [3, 8]: +++ (An MIC value (μg/mL) that is less than 8 μg/mL)
Ab + bicarb MIC [4, 9]: + (An MIC (μg/mL) value that is 32 μg/mL or greater)
Ef + bicarb MIC [5, 8]: + (An MIC (μg/mL) value that is 32 μg/mL or greater)
Sa + bicarb MIC [6, 8]: ++ (An MIC value (μg/mL) that is 8 μg/mL or greater and less than 32 μg/mL)
IC50 ([7]; % inhibition @ 1 μM): 0.5 to 1 µM

Cc1cc(-n2ccc(NC(=O)N3CCN(C(=O)[C@@](C)(N)CO)CC3)nc2=O)ccc1CCN1CC2CC2(CN)C1 (stereo partly drawn) [Compound 128]
IC50 [1, 10]: ≥ 1 µM
MIC [2, 11]: > 32 µg/mL
MIC [3, 11]: < 8 µg/mL
MIC ([4]; Acinetobacter baumannii): > 32 µg/mL
MIC [5, 11]: 8 to 32 µg/mL
MIC [6, 11]: < 8 µg/mL
IC50 [7, 10]: < 0.5 µM

CC(C)(N)C(=O)N1CCN(C(=O)Nc2ccn(-c3ccc(CNC45CC(CN)(C4)C5)cc3)c(=O)n2)CC1 [Compound 173]
IC50 ([1]; % inhibition @ 1 μM): ≥ 1 µM
MIC [2, 8]: > 32 µg/mL
MIC [3, 8]: < 8 µg/mL
MIC [4, 9]: > 32 µg/mL
MIC [5, 8]: > 32 µg/mL
MIC [6, 8]: > 32 µg/mL
IC50 ([7]; % inhibition @ 1 μM): ≥ 1 µM

NCC[C@H](N)C(=O)N1CCN(C(=O)Nc2ccn(-c3ccc(CN4C[C@@H]5[C@@H](N)[C@@H]5C4)cc3)c(=O)n2)CC1 [Compound 41]
IC50 [1, 10]: ≥ 1 µM
MIC [2, 11]: > 32 µg/mL
MIC [3, 11]: > 32 µg/mL
MIC ([4]; Acinetobacter baumannii): > 32 µg/mL
MIC [5, 11]: > 32 µg/mL
MIC [6, 11]: > 32 µg/mL
IC50 [7, 10]: ≥ 1 µM

C[C@@](N)(CO)C(=O)N1CCN(C(=O)Nc2ccn(-c3ccc(CCN4CC5CC5(CN)C4)cc3)c(=O)n2)CC1 (stereo partly drawn) [Compound 120]
IC50 [1, 10]: ≥ 1 µM
MIC [2, 11]: 8 to 32 µg/mL
MIC [3, 11]: < 8 µg/mL
MIC ([4]; Acinetobacter baumannii): > 32 µg/mL
MIC [5, 11]: 8 to 32 µg/mL
MIC [6, 11]: < 8 µg/mL
IC50 [7, 10]: < 0.5 µM

CC(Cc1ccc(-n2ccc(NC(=O)N3CCN(C(=O)[C@@](C)(N)CO)CC3)nc2=O)cc1)N1C[C@@H]2[C@@H](CN)[C@@H]2C1 (stereo partly drawn) [Compound 125]
IC50 [1, 10]: ≥ 1 µM
MIC [2, 11]: 8 to 32 µg/mL
MIC [3, 11]: < 8 µg/mL
MIC ([4]; Acinetobacter baumannii): > 32 µg/mL
MIC [5, 11]: < 8 µg/mL
MIC [6, 11]: < 8 µg/mL
IC50 [7, 10]: < 0.5 µM

CC(Cc1ccc(-n2ccc(NC(=O)N3CCN(C(=O)C(C)(C)N)CC3)nc2=O)cc1)N1CC2CCC(N)CC2C1 (stereo not drawn) [Compound 242]
IC50 ([1]; % inhibition @ 1 μM): ≥ 1 µM
Pa MIC + bicarb [2, 8]: + (An MIC (μg/mL) value that is 32 μg/mL or greater)
E. coli + bicarb MIC [3, 8]: +++ (An MIC value (μg/mL) that is less than 8 μg/mL)
Ab + bicarb MIC [4, 9]: + (An MIC (μg/mL) value that is 32 μg/mL or greater)
Ef + bicarb MIC [5, 8]: + (An MIC (μg/mL) value that is 32 μg/mL or greater)
Sa + bicarb MIC [6, 8]: ++ (An MIC value (μg/mL) that is 8 μg/mL or greater and less than 32 μg/mL)
IC50 ([7]; % inhibition @ 1 μM): 0.5 to 1 µM

CC(Cc1ccc(-n2ccc(NC(=O)N3CCN(C(=O)C(N)CCCN)CC3)nc2=O)cc1)N1C[C@@H]2[C@@H](CN)[C@@H]2C1 (stereo partly drawn) [Compound 239]
IC50 ([1]; % inhibition @ 1 μM): ≥ 1 µM
MIC [2, 8]: > 32 µg/mL
MIC [3, 8]: < 8 µg/mL
MIC [4, 9]: > 32 µg/mL
MIC [5, 8]: > 32 µg/mL
MIC [6, 8]: 8 to 32 µg/mL
IC50 ([7]; % inhibition @ 1 μM): < 0.5 µM

CC(C)(N)C(=O)N1CCN(C(=O)Nc2ccn(-c3ccc(CN4C[C@@H]5[C@@H](N)[C@@H]5C4)cc3)c(=O)n2)CC1 [Compound 65]
IC50 [1, 10]: ≥ 1 µM
MIC [2, 11]: > 32 µg/mL
MIC [3, 11]: < 8 µg/mL
MIC ([4]; Acinetobacter baumannii): 8 to 32 µg/mL
MIC [5, 11]: < 8 µg/mL
MIC [6, 11]: < 8 µg/mL
IC50 [7, 10]: < 0.5 µM

CC(C)(N)C(=O)N1CCN(C(=O)Nc2ccn(-c3ccc(CCN4C[C@@H]5[C@H](C4)[C@H]5C(N)CN)cc3)c(=O)n2)CC1 (stereo partly drawn) [Compound 213]
IC50 ([1]; % inhibition @ 1 μM): ≥ 1 µM
MIC [2, 8]: > 32 µg/mL
MIC [3, 8]: < 8 µg/mL
MIC [4, 9]: > 32 µg/mL
MIC [5, 8]: > 32 µg/mL
MIC [6, 8]: > 32 µg/mL
IC50 ([7]; % inhibition @ 1 μM): ≥ 1 µM
